One assay has as its target T1, TrCel6A (Trichoderma reesei, UniProt P07987).
T1 construct: TrCel6A was purified from the culture filtrate of Tr QM 9414 as described previously; made in house; host or cells: Trichoderma reesei QM 9414 culture filtrate (native producer)
The experiment in a line: Inhibition of hydrolysis of 14C-BMCC by TrCel6A. The format is biochemical. The settings on record: TrCel6A, 14C-BMCC, 50°C. An excerpt:
(§1) Here, we characterized the cellobiose and glucose inhibition of TrCel6A and its thermophilic counterpart, CtCel6A [9, 63]. First, the cellobiose inhibition of the synergistic hydrolysis of ^14C-BC by TrCel6A and TrCel5A was studied (Figure 7A). As TrCel6A was less sensitive to cellobiose inhibition than TrCel7A, the contribution of the cellobiose released during hydrolysis was not significant, and an average (DCB/DCB=0) over all time points was used in plotting (DCB/DCB=0) versus [cellobiose] (Figure 7D). No significant systematic variation of DCB/DCB=0 depending on hydrolysis time was observed. As in the case of GH7 CBHs, the IC50 value was found using Equations 5 and 6. Because the IC50 value for synergistic hydrolysis (Table 3) was of the same order as the apparent Ki value reported for TrCel5A [31], we further tested the inhibition of individual TrCel6A. BC is not a good substrate for TrCel6A, but its acid-treated derivative, BMCC, is readily degraded by the enzyme. Therefore, we prepared ^14C-BMCC by the heterogeneous acid hydrolysis of ^14C-BC. […]
(§2) GH6 CBHs were assessed by observing the hydrolysis of ^14C-BMCC. ^14C-BMCC (0.25 g l^-1) was incubated (with shaking at 350 rpm) with CBH (0.25 μM) and N188BG (0.06 μM) in 50 mM sodium acetate buffer, pH 5.0, containing BSA (0.1 g l^-1). […]

Another assay concerns the target CtCel6A (Chaetomium thermophilum, UniProt G0SD43). Briefly: Inhibition of hydrolysis of 14C-BMCC by CtCel6A. The format is biochemical. The following applies: CtCel6A, 14C-BMCC, 50°C.
Source text: as §1, §2

In the next assay the target is T2, TrCel5A (Trichoderma reesei, UniProt P07982).
T2 construct: TrCel7B, TrCel5A, and TrCel12A were purified from the culture filtrate of Tr QM 9414; made in house; host or cells: Trichoderma reesei QM 9414 culture filtrate (native producer)
T2 sequence (P07982 22-418): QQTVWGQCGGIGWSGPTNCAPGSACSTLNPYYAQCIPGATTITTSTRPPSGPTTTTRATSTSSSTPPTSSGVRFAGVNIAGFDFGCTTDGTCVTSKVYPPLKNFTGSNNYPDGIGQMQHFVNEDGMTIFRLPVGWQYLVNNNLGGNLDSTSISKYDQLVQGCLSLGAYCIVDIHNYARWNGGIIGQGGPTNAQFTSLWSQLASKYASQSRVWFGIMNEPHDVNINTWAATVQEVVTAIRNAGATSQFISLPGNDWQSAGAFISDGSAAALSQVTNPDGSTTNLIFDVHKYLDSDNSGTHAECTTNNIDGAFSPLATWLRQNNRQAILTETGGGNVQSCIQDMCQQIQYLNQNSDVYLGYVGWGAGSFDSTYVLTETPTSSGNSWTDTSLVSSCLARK
Details: method as in PMID 23410927. The settings on record: cited from earlier work.

For a further assay, the system named is GH7 CBHs. Details: method as in PMID 18512263. The settings on record: MUL as substrate of the GH7 CBHs; cited from earlier work.

Sequence of CtCel6A (G0SD43 entry or part of it): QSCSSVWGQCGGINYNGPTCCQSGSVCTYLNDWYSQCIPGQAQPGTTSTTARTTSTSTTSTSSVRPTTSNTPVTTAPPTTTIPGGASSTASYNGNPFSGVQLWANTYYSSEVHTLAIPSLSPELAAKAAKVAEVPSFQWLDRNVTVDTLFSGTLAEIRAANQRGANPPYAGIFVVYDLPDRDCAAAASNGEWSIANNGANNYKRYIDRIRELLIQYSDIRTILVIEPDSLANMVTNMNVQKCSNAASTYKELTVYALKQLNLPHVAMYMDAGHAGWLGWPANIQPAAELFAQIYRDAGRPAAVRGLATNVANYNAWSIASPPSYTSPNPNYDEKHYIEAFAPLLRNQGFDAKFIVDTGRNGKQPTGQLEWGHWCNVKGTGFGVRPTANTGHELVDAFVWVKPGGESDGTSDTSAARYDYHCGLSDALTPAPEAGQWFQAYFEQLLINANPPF
T1 sequence (P07987 25-471): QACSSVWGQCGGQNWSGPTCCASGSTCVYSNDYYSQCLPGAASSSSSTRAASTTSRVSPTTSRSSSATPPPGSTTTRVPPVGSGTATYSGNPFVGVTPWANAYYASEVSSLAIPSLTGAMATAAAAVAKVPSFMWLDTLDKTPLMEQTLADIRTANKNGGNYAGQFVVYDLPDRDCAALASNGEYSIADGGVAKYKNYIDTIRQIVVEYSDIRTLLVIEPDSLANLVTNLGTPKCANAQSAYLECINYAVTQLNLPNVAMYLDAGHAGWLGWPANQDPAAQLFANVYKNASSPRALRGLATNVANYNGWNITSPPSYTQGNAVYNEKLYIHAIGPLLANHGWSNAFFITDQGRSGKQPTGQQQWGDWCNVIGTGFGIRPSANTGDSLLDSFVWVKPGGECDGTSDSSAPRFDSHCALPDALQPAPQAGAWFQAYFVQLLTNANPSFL

In the case of `OC[C@H]1OC(O)[C@H](O)[C@@H](O)[C@@H]1O` (stereo partly shown) [glucose, Glucose], the “times weaker inhibitor than cellobiose” value at TrCel6A and on CtCel6A was “approximately 10 times” in each case. The inhibition by glucose result on TrCel5A is reported as “not significantly inhibited”.

Turning to `Cc1cc(=O)oc2cc(O[C@@H]3O[C@H](CO)[C@@H](O[C@@H]4O[C@H](CO)[C@H](O)[C@H](O)[C@H]4O)[C@H](O)[C@H]3O)ccc12` [MUL, 4-methylumbelliferyl-β-lactoside], the Km (usually the concentration of substrate that gives half-maximal velocity) in the assay with GH7 CBHs is about 300 µM.

Values taken from article PMC3726336, “Product inhibition of cellulases studied with ^14C-labeled cellulose substrates” (Biotechnology for Biofuels, 2013).
